Results as given in ChEMBL document CHEMBL1148828, “Deoxycholic acid-derived tetraoxane antimalarials and antiproliferatives(1)” (J Med Chem, 2007).

Experiments:
NCI = assay: Growth inhibition of human NCI DTP 60 cells; type: functional
786-0 = assay: Antiproliferative activity against human 786-0 cells after 48 hrs; type: functional; settings: for CC50: read-out: LC50 (the source's name)
HL-60 = assay: Antiproliferative activity against human HL60 cells after 48 hrs; type: functional; settings: for CC50: read-out: LC50 (the source's name)
LOX IMVI = assay: Antiproliferative activity against human LOX IMVI cells after 48 hrs; type: functional
DU-145 = assay: Antiproliferative activity against human DU145 cells after 48 hrs; type: functional; settings: DU-145, 48 h
HOP-92 = assay: Antiproliferative activity against human HOP92 cells after 48 hrs; type: functional
CCRF-CEM = assay: Antiproliferative activity against human CCRF-CEM cells after 48 hrs; type: functional
IGROV-1 = assay: Antiproliferative activity against human IGROV1 cells after 48 hrs; type: functional; settings: IGROV-1, 48 h
PC-3 = assay: Antiproliferative activity against human PC3 cells after 48 hrs; type: functional; settings: PC-3, 48 h
UO-31 = assay: Antiproliferative activity against human UO31 cells after 48 hrs; type: functional
Plasmodium falciparum [1] = assay: Antimalarial activity against Plasmodium falciparum W2; type: functional, organism-based
Plasmodium falciparum [2] = assay: Antimalarial activity against Plasmodium falciparum D6; type: functional, organism-based
Plasmodium falciparum [3] = assay: Antimalarial activity against Plasmodium falciparum TM91C235; type: functional, organism-based
CAKI-1 = assay: Antiproliferative activity against human CAKI1 cells after 48 hrs; type: functional; settings: CAKI-1, 48 h; for CC50: read-out: LC50 (the source's name)
MOLT-4 = assay: Antiproliferative activity against human MOLT4 cells after 48 hrs; type: functional; settings: MOLT-4, 48 h
NCI-H460 = assay: Antiproliferative activity against human NCI-H460 cells after 48 hrs; type: functional; settings: NCI-H460, 48 h; for CC50: read-out: LC50 (the source's name)
ACHN = assay: Antiproliferative activity against human ACHN cells after 48 hrs; type: functional
NCI-H522 = assay: Antiproliferative activity against human NCI-H522 cells after 48 hrs; type: functional; settings: NCI-H522, 48 h
[4] = Antiproliferative activity against human […] cells after 48 hrs; type: functional
[5] = read-out: LC50 (the source's name)

Compound: CC1CCC2(CC1)OOC1(CC[C@@]3(C)[C@H](CC[C@@H]4[C@@H]3C[C@H](O)[C@]3(C)[C@@H]([C@H](C)CCC(=O)NCCN(C)C)CC[C@@H]43)C1)OO2 (stereo in doubt; 17a)
- GI50 (NCI): 130 nM
- GI50 (786-0): 335 nM
- TGI (786-0): 1050 nM
- CC50 (786-0): 3650 nM
- GI50 (HL-60): 264 nM
- TGI (HL-60): 477 nM
- CC50 (HL-60): 863 nM
- GI50 (LOX IMVI): 180 nM
- LC50 (concentration killing 50% of cells) (LOX IMVI): 689 nM
- TGI (LOX IMVI): 352 nM
- GI50 (DU-145): 641 nM
- LC50 (concentration killing 50% of cells) (DU-145): 4490 nM
- TGI (DU-145): 1910 nM
- GI50 (HOP-92): 171 nM
- LC50 (concentration killing 50% of cells) (HOP-92): 794 nM
- TGI (HOP-92): 368 nM
- GI50 (CCRF-CEM): 186 nM
- LC50 (concentration killing 50% of cells) (CCRF-CEM): 792 nM
- TGI (CCRF-CEM): 384 nM
- GI50 (IGROV-1): 160 nM
- LC50 (concentration killing 50% of cells) (IGROV-1): 712 nM
- TGI (IGROV-1): 338 nM
- GI50 (PC-3): 367 nM
- TGI (PC-3): 1620 nM
- CC50 (PC-3; [5]): 4450 nM
- GI50 (UO-31): 165 nM
- LC50 (UO-31): 613 nM
- TGI (UO-31): 318 nM

Compound: CCCNC(=O)CC[C@@H](C)[C@H]1CC[C@H]2[C@@H]3CC[C@@H]4CC5(CC[C@]4(C)[C@H]3C[C@H](OC(C)=O)[C@]12C)OOC1(CCC(C)CC1)OO5 (stereo in doubt; 15)
- IC50 (Plasmodium falciparum [1]): 33.8 nM
- IC90 (Plasmodium falciparum [1]): 53.7 nM
- IC50 (Plasmodium falciparum [2]): 29.3 nM
- IC90 (Plasmodium falciparum [2]): 39.3 nM
- IC50 (Plasmodium falciparum [3]): 34.1 nM
- IC90 (Plasmodium falciparum [3]): 50.7 nM
- GI50 (NCI; Homo sapiens, NCI): 62 nM
- GI50 (LOX IMVI; Homo sapiens, LOX IMVI, 48 h): 116 nM
- LC50 (concentration killing 50% of cells) (LOX IMVI; Homo sapiens, LOX IMVI, 48 h): 1680 nM
- TGI (LOX IMVI; Homo sapiens, LOX IMVI, 48 h): 391 nM
- GI50 (DU-145): 663 nM
- LC50 (concentration killing 50% of cells) (DU-145): 3910 nM
- TGI (DU-145): 1610 nM
- GI50 (CAKI-1): 62.2 nM
- TGI (CAKI-1): 163 nM
- CC50 (CAKI-1): 429 nM
- GI50 (HOP-92; Homo sapiens, HOP-92, 48 h): 134 nM
- LC50 (concentration killing 50% of cells) (HOP-92; Homo sapiens, HOP-92, 48 h): 4530 nM
- TGI (HOP-92; Homo sapiens, HOP-92, 48 h): 873 nM
- GI50 (UO-31; Homo sapiens, UO-31, 48 h): 122 nM
- TGI (UO-31; Homo sapiens, UO-31, 48 h): 329 nM

Compound: CC(=O)O[C@H]1C[C@H]2[C@@H](CC[C@@H]3CC4(CC[C@@]32C)OOC2(CCC(C)CC2)OO4)[C@@H]2CC[C@H]([C@H](C)CCC(=O)Nc3ccccc3)[C@@]12C (stereo in doubt; 19)
- IC50 (Plasmodium falciparum [1]): 50.8 nM
- IC90 (Plasmodium falciparum [1]): 76.9 nM
- IC50 (Plasmodium falciparum [2]): 50 nM
- IC90 (Plasmodium falciparum [2]): 77.5 nM
- IC50 (Plasmodium falciparum [3]): 66.8 nM
- IC90 (Plasmodium falciparum [3]): 109 nM
- GI50 (NCI; Homo sapiens, NCI): < 5 nM
- GI50 (HOP-92; Homo sapiens, HOP-92, 48 h): < 5 nM
- LC50 (concentration killing 50% of cells) (HOP-92; Homo sapiens, HOP-92, 48 h): 15200 nM
- TGI (HOP-92; Homo sapiens, HOP-92, 48 h): 130 nM

Compound: CC1CCC2(CC1)OOC1(CC[C@@]3(C)[C@H](CC[C@@H]4[C@@H]3C[C@H](O)[C@]3(C)[C@@H]([C@H](C)CCC(=O)NCCN(C)C)CC[C@@H]43)C1)OO2 (stereo in doubt; 16a)
- GI50 (NCI): 15 nM
- GI50 (786-0; Homo sapiens, 786-0, 48 h): 626 nM
- TGI (786-0; Homo sapiens, 786-0, 48 h): 2040 nM
- CC50 (786-0; Homo sapiens, 786-0, 48 h): 5430 nM
- TGI (HL-60): 1010 nM
- GI50 (HL-60; Homo sapiens, HL-60, 48 h): 377 nM
- CC50 (HL-60): 6090 nM
- GI50 (LOX IMVI; Homo sapiens, LOX IMVI, 48 h): 184 nM
- LC50 (concentration killing 50% of cells) (LOX IMVI; Homo sapiens, LOX IMVI, 48 h): 774 nM
- TGI (LOX IMVI; Homo sapiens, LOX IMVI, 48 h): 378 nM
- GI50 (HOP-92; Homo sapiens, HOP-92, 48 h): 228 nM
- LC50 (concentration killing 50% of cells) (HOP-92; Homo sapiens, HOP-92, 48 h): 973 nM
- TGI (HOP-92; Homo sapiens, HOP-92, 48 h): 471 nM
- LC50 (concentration killing 50% of cells) (CCRF-CEM): > 10000 nM
- GI50 (CCRF-CEM; Homo sapiens, CCRF-CEM, 48 h): 257 nM
- TGI (CCRF-CEM; Homo sapiens, CCRF-CEM, 48 h): 539 nM
- GI50 (UO-31; Homo sapiens, UO-31, 48 h): 206 nM
- LC50 (UO-31; Homo sapiens, UO-31, 48 h): 864 nM
- TGI (UO-31; Homo sapiens, UO-31, 48 h): 421 nM

Compound: CC(=O)O[C@H]1C[C@H]2[C@@H](CC[C@@H]3CC4(CC[C@@]32C)OOC2(CCCCC2)OO4)[C@@H]2CC[C@H]([C@H](C)CCC(=O)NCCN(C)C)[C@@]12C
- IC50 (Plasmodium falciparum [1]; Plasmodium falciparum, W2): 105 nM
- IC90 (Plasmodium falciparum [1]; Plasmodium falciparum, W2): 276 nM
- IC50 (Plasmodium falciparum [2]; Plasmodium falciparum, D6): 221 nM
- IC50 (Plasmodium falciparum [3]; Plasmodium falciparum, TM91C235): 221 nM
- GI50 (NCI; Homo sapiens, NCI): < 10 nM
- GI50 (MOLT-4): < 10 nM
- TGI (MOLT-4): > 100000 nM
- GI50 (NCI-H460): 536 nM
- TGI (NCI-H460): 1900 nM
- CC50 (NCI-H460): 4700 nM
- GI50 (786-0; Homo sapiens, 786-0, 48 h): 159 nM
- TGI (786-0; Homo sapiens, 786-0, 48 h): 298 nM
- CC50 (786-0; Homo sapiens, 786-0, 48 h): 559 nM

Compound: CC(=O)O[C@H]1C[C@H]2[C@@H](CC[C@@H]3CC4(CC[C@@]32C)OOC2(CCC(C)CC2)OO4)[C@@H]2CC[C@H]([C@H](C)CCC(=O)NCCN(C)C)[C@@]12C (stereo in doubt; 17)
- IC50 (Plasmodium falciparum [1]): 136 nM
- IC90 (Plasmodium falciparum [1]): 155 nM
- IC50 (Plasmodium falciparum [2]): 104 nM
- IC90 (Plasmodium falciparum [2]): 148 nM
- IC50 (Plasmodium falciparum [3]): 136 nM
- IC90 (Plasmodium falciparum [3]): 153 nM
- GI50 (NCI; Homo sapiens, NCI): < 5 nM
- GI50 (786-0): 81.3 nM
- TGI (786-0): 149 nM
- LC50 (concentration killing 50% of cells) (LOX IMVI): 56.4 nM
- TGI (LOX IMVI): 5.18 nM
- GI50 (CAKI-1): 602 nM
- TGI (CAKI-1): 1400 nM
- CC50 (CAKI-1): 3250 nM
- GI50 (ACHN): 439 nM
- LC50 (concentration killing 50% of cells) (ACHN): 2300 nM
- TGI (ACHN): 1050 nM

Compound: CC(=O)O[C@H]1C[C@H]2[C@@H]([C@H](OC(C)=O)C[C@@H]3CC4(CC[C@@]32C)OOC2(CCCCC2)OO4)[C@@H]2CC[C@H]([C@H](C)CCC(N)=O)[C@@]12C
- GI50 (NCI; Homo sapiens, NCI): < 10 nM
- GI50 (NCI-H460): 550 nM
- TGI (NCI-H460): 2070 nM
- CC50 (NCI-H460): 5280 nM
- GI50 (786-0; Homo sapiens, 786-0, 48 h): 783 nM
- TGI (786-0; Homo sapiens, 786-0, 48 h): 2090 nM
- CC50 (786-0; Homo sapiens, 786-0, 48 h): 4570 nM
- GI50 (CAKI-1): 200 nM
- TGI (CAKI-1): 1120 nM
- CC50 (CAKI-1): 3590 nM
- GI50 (IGROV-1): 32 nM
- LC50 (concentration killing 50% of cells) (IGROV-1): 430 nM
- TGI (IGROV-1): 120 nM
- GI50 (NCI-H522): 230 nM
- TGI (NCI-H522): 770 nM
- CC50 (NCI-H522; [5]): 3020 nM
- GI50 (UO-31; Homo sapiens, UO-31, 48 h): < 10 nM
- LC50 (UO-31; Homo sapiens, UO-31, 48 h): 40 nM
- TGI (UO-31; Homo sapiens, UO-31, 48 h): 14 nM

Compound: CCCNC(=O)CC[C@@H](C)[C@H]1CC[C@H]2[C@@H]3CC[C@@H]4CC5(CC[C@]4(C)[C@H]3C[C@H](OC(C)=O)[C@]12C)OOC1(CCCCC1)OO5
- IC50 (Plasmodium falciparum [1]; Plasmodium falciparum, W2): 40.8 nM
- IC90 (Plasmodium falciparum [1]; Plasmodium falciparum, W2): 111 nM
- IC50 (Plasmodium falciparum [2]; Plasmodium falciparum, D6): 74.3 nM
- IC90 (Plasmodium falciparum [2]; Plasmodium falciparum, D6): 115 nM
- GI50 (NCI; Homo sapiens, NCI): 110 nM
- GI50 [4]: 110 nM
- TGI [4]: 650 nM
- CC50 [4, 5]: 6820 nM

Compound: CC(=O)O[C@H]1C[C@H]2[C@@H]([C@H](OC(C)=O)C[C@@H]3CC4(CC[C@@]32C)OOC2(CCC(C)CC2)OO4)[C@@H]2CC[C@H]([C@H](C)CCC(=O)Nc3ccccc3)[C@@]12C (stereo in doubt; 20)
- IC50 (Plasmodium falciparum [1]): 7.86 nM
- IC90 (Plasmodium falciparum [1]): 10.1 nM
- IC50 (Plasmodium falciparum [2]): 5.48 nM
- IC90 (Plasmodium falciparum [2]): 8.07 nM
- IC50 (Plasmodium falciparum [3]): 6.24 nM
- IC90 (Plasmodium falciparum [3]): 11 nM
- GI50 (NCI): 160 nM
- LC50 (concentration killing 50% of cells) (LOX IMVI): 1890 nM
- GI50 (LOX IMVI; Homo sapiens, LOX IMVI, 48 h): 161 nM
- TGI (LOX IMVI; Homo sapiens, LOX IMVI, 48 h): 417 nM
